Test results from the NIST ThermoML archive (doi:10.1021/acs.jced.5b01048).
Numbers after ± are expanded uncertainties.

What was measured:
[1] = 293.15 K; 101.33 kPa; Liquid; Buoyancy - hydrostatic balance
[2] = refractive index (Na D-line) (dimensionless); conditions: 293.15 K; 101.33 kPa; Liquid; Standard Abbe refractometry

Row | Structure (SMILES) | mass density [1] [kg/m3] | refractive index [2]
1 | C=CCO [2-propenol] | 854 ± 1 | 1.4119 ± 0.0005
2 | CO [methanol] | 792.2 ± 1 | 1.3276 ± 0.0005
3 | CCO [ethanol] | 790 ± 1 | 1.3616 ± 0.0005
4 | O [water] | 998.4 ± 1 | 1.3328 ± 0.0005
